The results in this text go back to patent US11198705B2, “Hybrid Amphotericin B derivatives with reduced toxicity” (priority 2018, dated 2021).

For series [1], the system named is C. albicans. Kind of series: Murine model of invasive candidiasis, single IP injection (FIG. 10). Format: in vivo, neutropenic ICR/Swiss mice. From the text: Andes, D. et al., Antimicrobial agents and chemotherapy 2001, 45 (3), 922-6. […] Wiederhold, N. P. et al., Antimicrobial agents and chemotherapy 2006, 50 (2), 469-73.
Series [2] concerns human red blood cells. It is filed as cell-based.
The test system of series [3] is Candida and Aspergillus clinical isolates. Description: In vitro antifungal activity, Candida and Aspergillus clinical isolates (Evotec). It is filed as cell-based. The conditions noted are these: many Candida and several Aspergillus strains.
Series [4] is described as follows: IV toxicity in mice (mortality). Format: in vivo.
Series [5] relates to A. fumigatus. Kind of series: In vitro antifungal activity, A. fumigatus strains (Evotec). Format: cell-based.
The subject of series [6] is series of important pathogens (Candida and Aspergillus strains). Description: In vitro antifungal activity of C2′epiAmBAU hybrid vs AmB, C2′epiAmB and AmBAU (FIG. 18). The conditions noted are these: A. fumigatus 91, A. fumigatus 1163, and A. fumigatus 1100. Format: cell-based. From the text:
In a key result, synthesis on small scale was accomplished on the first targeted hybrid derivative, C2′epiAmBAU, as per FIG. 17 confirming the feasibility of the route to these natural product analogs. The initial biological analysis of this first C2′epiAmBUrea derivative was very encouraging since a substantial increase in antifungal potency for C2′epiAmBAU relative to C2′epiAmB was observed (FIG. 18).

Series [7] relates to yeast. Description: Activity against yeast / cell killing (FIG. 2). Format: cell-based. The conditions noted are these: fungal vs human cells. From the text:
(§1) This key discovery opened a path to the rational development of a non-toxic AmB variant. To probe its predicted role in sterol binding, the hydroxyl group was synthetically deleted at the C2′ position on the mycosamine appendage. […] Consistent with the sterol sponge model, this derivative retained good activity against yeast but, most importantly, was nontoxic to human red blood cells and primary (hREC) (FIG. 2B).
(§2) A practical 11-step synthesis of C2′epiAmB using a frontier site-selective acylation method was developed (FIG. 4). Wilcock, B. C. et al., Nat Chem 2012, 4 (12), 996-1003; Uno, B. E. A synthesis enabled understanding of Amphotericin B leading to derivatives with improved therapeutic indices. University of Illinois at Urbana-Champaign, 2014. The sterol binding and cell killing activities was then determined.

Series [8] is classed as binding. The conditions noted are these: UV-Vis/PCA sponge-sterol titration. An excerpt:
(§3) However, an alternative method was developed for reproducible formation of homogenous AmB and C2′epiAmB sterol sponge aggregates in vitro. Using these preparations, a quantitative UV-Vis and Principle Component (PCA) based assay for determining the apparent KDS for the binding of AmB and C2′epiAmB to ergosterol and cholesterol (FIGS. 5A-D) was developed.
(§4) Biophysical studies support the conclusion that different capacities to bind cholesterol underlie these striking differences in toxicity for the AmBUreas versus C2′epiAmB (FIG. 15). Isothermal titration calorimetry is unable to distinguish between cholesterol binding in these two series. However, a more sensitive and quantitative UV-Vis/PCA based sponge-sterol titration experiments described above (see Example 1) was employed to quantify the binding of a representative AmB urea (AmBAU) to ergosterol and cholesterol. […] It was reasoned that the lack of cholesterol binding in C2′epiAmB to a ligand-selective allosteric effect was caused by epimerization of the C2′stereocenter (see Example 1), and thus predict that the biophysical effects associated with C2′-epimerization should be transposable to other AmB derivatives.

Series [9] can be described thus: Isothermal titration calorimetry (ITC) sterol binding, ergosterol. The conditions noted are these: within detection limits of ITC.
Description: as §1, §2
In general terms: Isothermal titration calorimetry measures the heat released or taken up as one component is titrated into another.

Series [10] is described as follows: UV-Vis/PCA sterol sponge titration, cholesterol. It is filed as binding.
Description: as §3, §4

Series [11] relates to A. fumigatus 91, A. fumigatus 1100. Kind of series: MIC against A. fumigatus 91 and A. fumigatus 1100. Format: cell-based. From the text:
The results with C2′epiAmBAU strongly support the prediction that C16 modifications will show improved potency compared to C2′epiAmB. […] Thus, it is expected that hybridizations of C2′epiAmB with other urea side chains will yield similar increases in potency without any mammalian toxicity. If this proves not to be the case, other classes of C16 modifications that also increase potency will be pursed. […] Alternative modifications may be pursed at the mycosamine appendage that the modelling predicts should similarly eliminate the water-bridged C2′OH to C13OH hydrogen bond, e.g., C2′deoxygenation, C2′-halodeoxygenation, or C2′-methyldeoxygenation, and thus eliminate cholesterol binding (see FIGS. 3A and 3B). This study anticipates high doses of non-toxic C2′epiAmBUreas will yield a significant reduction in fungal burden and therefore an increase in survival in QD dosing efficacy studies relative to AmB-deoxycholate (Fungizone®), AmBisome®, C2′epiAmB, voriconazole, and caspofungin.

The test system of series [12] is primary human renal epithelial cells (hREC). From the text: As a complementary parallel first step in the screening funnel, the MTC's of all new derivatives will be evaluated against hREC using a WST-8 cell proliferation assay kit as previously described above. The MTC will be determined by calculating the mean of at least two biological replicates.
Series [13] has as its system clinically relevant invasive molds. Kind of series: In vitro antifungal activity, panel of clinically relevant invasive molds (FIG. 8C). Format: cell-based. The conditions noted are these: many strains, including pan-azole resistant strain F14196.
Series [14] relates to C. albicans. Description: MIC against C. albicans with and without pre-complexation with ergosterol. Format: cell-based. The conditions noted are these: sponge pre-complexed with ergosterol. An excerpt: Anderson, T. M. et al., Nat Chem Biol 2014, 10 (5), 400-6. […] Davis, S. A., et al., Nat Chem Biol 2015, 11 (7), 481-7. To test whether C2′epiAmB primarily kills cells via the same sterol sponge mechanism, the C2′epiAmB sponge was similarly pre-complexed with ergosterol (FIG. 9). […] Thus, C2′epiAmB similarly kills yeast primarily via sterol binding, and, by extension, the new compounds targeted in this application are expected to have a similar barrier to fungal resistance that has been observed for the past 50+ years with AmB.

A short description of series [15]: IV toxicity in rats (BUN, ALT/AST, mortality).
Series [16] is described as follows: Isothermal titration calorimetry (ITC) sterol binding, cholesterol. The conditions noted are these: within detection limits of ITC.
Description: as §1, §2

Series [17] concerns 40 Aspergillus clinical isolates, including azole-resistant A. fumigatus, A. flavus, and A. terreus. Kind of series: Antifungal testing, extended panel of 40 Aspergillus clinical isolates (Fungus Testing Laboratory, UT-San Antonio). Format: cell-based.

What is called MIC is the smallest concentration in the dilution series that meets the test's criterion for growth inhibition. A higher MIC goes with a less susceptible organism.

Converted amounts (≈) assume the structure as drawn.

As for `C[C@@H]1[C@H](O)[C@@H](C)/C=C/C=C/C=C/C=C/C=C/C=C/C=C/[C@H](O[C@@H]2O[C@H](C)[C@@H](O)[C@H](N)[C@H]2O)C[C@@H]2O[C@](O)(C[C@@H](O)C[C@@H](O)[C@H](O)CC[C@@H](O)C[C@@H](O)CC(=O)O[C@H]1C)C[C@H](O)[C@H]2C(=O)O` [C2′epiAmB], the fungal burden entry in [1] (16 mg/kg) is “outstanding reductions in fungal burden”. Besides, the efficacy entry in series [1] (deoxycholate complex, 1, 4, 8, or 16 mg/kg) is given as “dose-dependent efficacy”. Besides, the “toxicity to human red blood cells” value in series [2] is listed as “non-toxic”. Also, the “in vitro antifungal activity” value in series [3] was “good activity”. For the same molecule, in [4] (IV, mice, 128 mg/kg (highest dose tested)), the mortality result is reported as “survived”. Further, the toxicity to mice entry in series [4] (up to the highest dose tested) is “non-toxic”. The “potency relative to AmB (less potent)” value is reported as > 32 times in [5] (A. fumigatus AF91); 4 fold in series [5] (A. fumigatus AF293, A1163, and ATC204305); 2-16 times in series [17] (range over 40 Aspergillus clinical isolates). For the same molecule, the “resistance of strains to compound” value in series [6] is reported as “complete or nearly complete resistance”. Also, the cell killing activities entry in series [7] was “kill fungal but not human cells”. The binding to ergosterol result in series [8] is reported as “retained binding”. The “binding of ergosterol by ITC” value in [9] is reported as “bind ergosterol”. Further, in series [10], the binding to cholesterol entry is “no detectable binding”. Also, the minimum inhibitory concentration (MIC) in series [11] (A. fumigatus 91) is > 64 µM; in series [11] (A. fumigatus 1100), 32 µM (≈ 29.6 µg/mL). Besides, the “minimum toxic concentration (MTC) against primary hRECs” value in [12] is > 80 µM. In series [12], the “toxicity to primary hREC” value is listed as “non-toxic”. In addition, the antifungal potency entry in series [13] is “good antifungal potency”. Moreover, the “change in potency upon ergosterol pre-complexation” value in series [14] is “same reduction in potency”. In [15] (17.5 mg/kg (highest tested dose)), the toxicity in rats entry is “no such toxicity”. For the same molecule, in series [15] (up to the highest dose tested), the toxicity to rats result was “non-toxic”. The “binding of cholesterol by ITC” value in series [16] is recorded as “not (detectably) cholesterol”. Moreover, in [17] (average across all 40 strains), the “average potency relative to AmB (less potent)” value is recorded as 5.6 fold.
